In article PMC5513037, “Examining the influence of specificity ligands and ATP-competitive ligands on the overall effectiveness of bivalent kinase inhibitors” (Proteome Science, 2017):

Key:
Assay in all cases: KAM-matrix competition in K562 lysate;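 as to 0.001 uM KAM: median log10 fold change of treatment over DMSO control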;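 as to 0.01 uM KAM: median log10 fold change of treatment over DMSO control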;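 as to 0.1 uM KAM: median log10 fold change of treatment over DMSO control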;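 as to 1 uM KAM: median log10 fold change of treatment over DMSO control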;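 as to 10 uM KAM: median log10 fold change of treatment over DMSO control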
Assay type in all cases: binding
MAPK14 = biological target: T1, MAPK14 (Homo sapiens, UniProt Q16539);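 as to 0.001 uM KAM: median log10 fold change of treatment over DMSO control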;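 as to 0.01 uM KAM: median log10 fold change of treatment over DMSO control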;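 as to 0.1 uM KAM: median log10 fold change of treatment over DMSO control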;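 as to 1 uM KAM: median log10 fold change of treatment over DMSO control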;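 as to 10 uM KAM: median log10 fold change of treatment over DMSO control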
T1 construct: endogenous in cells; host or cells: K562
T1 sequence (Q16539 whole entry): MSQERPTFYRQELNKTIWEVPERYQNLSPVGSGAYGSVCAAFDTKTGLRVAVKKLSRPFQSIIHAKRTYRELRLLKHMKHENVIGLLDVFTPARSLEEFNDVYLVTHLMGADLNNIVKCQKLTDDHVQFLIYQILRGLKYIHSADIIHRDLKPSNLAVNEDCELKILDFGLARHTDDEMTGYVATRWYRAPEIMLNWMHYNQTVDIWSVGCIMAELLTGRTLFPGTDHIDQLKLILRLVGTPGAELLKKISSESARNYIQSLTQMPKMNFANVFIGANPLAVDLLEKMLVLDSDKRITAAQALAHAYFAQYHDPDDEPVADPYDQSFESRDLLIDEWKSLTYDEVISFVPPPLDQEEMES
Protocol: (§1) Supplement 12953_2017_125_MOESM1_ESM.zip/MS_Supp Info.xlsx, sheet "KAM" | column: 10 uM KAM; 1 uM KAM; 0.1 uM KAM; 0.01 uM KAM; 0.001 uM KAM; RB50

ARAF = biological target: T2, ARAF (Homo sapiens, UniProt P10398);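 as to 0.001 uM KAM: median log10 fold change of treatment over DMSO control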;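 as to 0.01 uM KAM: median log10 fold change of treatment over DMSO control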;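 as to 0.1 uM KAM: median log10 fold change of treatment over DMSO control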;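 as to 1 uM KAM: median log10 fold change of treatment over DMSO control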;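 as to 10 uM KAM: median log10 fold change of treatment over DMSO control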
T2 construct: endogenous in cells; host or cells: K562
T2 sequence (P10398 1-606): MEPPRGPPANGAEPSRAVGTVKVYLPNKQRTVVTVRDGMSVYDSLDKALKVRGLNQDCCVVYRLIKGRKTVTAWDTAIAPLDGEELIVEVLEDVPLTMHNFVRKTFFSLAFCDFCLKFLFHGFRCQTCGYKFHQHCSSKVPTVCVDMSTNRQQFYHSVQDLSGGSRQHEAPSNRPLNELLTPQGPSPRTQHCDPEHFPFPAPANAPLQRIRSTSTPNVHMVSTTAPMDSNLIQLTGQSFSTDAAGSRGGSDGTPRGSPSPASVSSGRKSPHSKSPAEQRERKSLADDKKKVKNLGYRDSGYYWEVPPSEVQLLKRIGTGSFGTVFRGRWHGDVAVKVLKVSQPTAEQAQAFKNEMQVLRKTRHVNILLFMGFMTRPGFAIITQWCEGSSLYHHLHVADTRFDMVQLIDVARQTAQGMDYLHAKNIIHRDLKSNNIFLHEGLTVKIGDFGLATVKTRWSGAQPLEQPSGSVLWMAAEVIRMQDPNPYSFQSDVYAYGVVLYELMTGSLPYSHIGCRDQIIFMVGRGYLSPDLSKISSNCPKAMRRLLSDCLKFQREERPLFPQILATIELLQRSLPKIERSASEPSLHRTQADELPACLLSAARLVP
Protocol: as §1

BCR = biological target: T3, BCR (Homo sapiens, UniProt P00519+P11274)
T3 construct: ABL1 (fusion partner in BCR-ABL); endogenous in cells; host or cells: K562 lysate
T3 sequence (P11274+P00519 fused): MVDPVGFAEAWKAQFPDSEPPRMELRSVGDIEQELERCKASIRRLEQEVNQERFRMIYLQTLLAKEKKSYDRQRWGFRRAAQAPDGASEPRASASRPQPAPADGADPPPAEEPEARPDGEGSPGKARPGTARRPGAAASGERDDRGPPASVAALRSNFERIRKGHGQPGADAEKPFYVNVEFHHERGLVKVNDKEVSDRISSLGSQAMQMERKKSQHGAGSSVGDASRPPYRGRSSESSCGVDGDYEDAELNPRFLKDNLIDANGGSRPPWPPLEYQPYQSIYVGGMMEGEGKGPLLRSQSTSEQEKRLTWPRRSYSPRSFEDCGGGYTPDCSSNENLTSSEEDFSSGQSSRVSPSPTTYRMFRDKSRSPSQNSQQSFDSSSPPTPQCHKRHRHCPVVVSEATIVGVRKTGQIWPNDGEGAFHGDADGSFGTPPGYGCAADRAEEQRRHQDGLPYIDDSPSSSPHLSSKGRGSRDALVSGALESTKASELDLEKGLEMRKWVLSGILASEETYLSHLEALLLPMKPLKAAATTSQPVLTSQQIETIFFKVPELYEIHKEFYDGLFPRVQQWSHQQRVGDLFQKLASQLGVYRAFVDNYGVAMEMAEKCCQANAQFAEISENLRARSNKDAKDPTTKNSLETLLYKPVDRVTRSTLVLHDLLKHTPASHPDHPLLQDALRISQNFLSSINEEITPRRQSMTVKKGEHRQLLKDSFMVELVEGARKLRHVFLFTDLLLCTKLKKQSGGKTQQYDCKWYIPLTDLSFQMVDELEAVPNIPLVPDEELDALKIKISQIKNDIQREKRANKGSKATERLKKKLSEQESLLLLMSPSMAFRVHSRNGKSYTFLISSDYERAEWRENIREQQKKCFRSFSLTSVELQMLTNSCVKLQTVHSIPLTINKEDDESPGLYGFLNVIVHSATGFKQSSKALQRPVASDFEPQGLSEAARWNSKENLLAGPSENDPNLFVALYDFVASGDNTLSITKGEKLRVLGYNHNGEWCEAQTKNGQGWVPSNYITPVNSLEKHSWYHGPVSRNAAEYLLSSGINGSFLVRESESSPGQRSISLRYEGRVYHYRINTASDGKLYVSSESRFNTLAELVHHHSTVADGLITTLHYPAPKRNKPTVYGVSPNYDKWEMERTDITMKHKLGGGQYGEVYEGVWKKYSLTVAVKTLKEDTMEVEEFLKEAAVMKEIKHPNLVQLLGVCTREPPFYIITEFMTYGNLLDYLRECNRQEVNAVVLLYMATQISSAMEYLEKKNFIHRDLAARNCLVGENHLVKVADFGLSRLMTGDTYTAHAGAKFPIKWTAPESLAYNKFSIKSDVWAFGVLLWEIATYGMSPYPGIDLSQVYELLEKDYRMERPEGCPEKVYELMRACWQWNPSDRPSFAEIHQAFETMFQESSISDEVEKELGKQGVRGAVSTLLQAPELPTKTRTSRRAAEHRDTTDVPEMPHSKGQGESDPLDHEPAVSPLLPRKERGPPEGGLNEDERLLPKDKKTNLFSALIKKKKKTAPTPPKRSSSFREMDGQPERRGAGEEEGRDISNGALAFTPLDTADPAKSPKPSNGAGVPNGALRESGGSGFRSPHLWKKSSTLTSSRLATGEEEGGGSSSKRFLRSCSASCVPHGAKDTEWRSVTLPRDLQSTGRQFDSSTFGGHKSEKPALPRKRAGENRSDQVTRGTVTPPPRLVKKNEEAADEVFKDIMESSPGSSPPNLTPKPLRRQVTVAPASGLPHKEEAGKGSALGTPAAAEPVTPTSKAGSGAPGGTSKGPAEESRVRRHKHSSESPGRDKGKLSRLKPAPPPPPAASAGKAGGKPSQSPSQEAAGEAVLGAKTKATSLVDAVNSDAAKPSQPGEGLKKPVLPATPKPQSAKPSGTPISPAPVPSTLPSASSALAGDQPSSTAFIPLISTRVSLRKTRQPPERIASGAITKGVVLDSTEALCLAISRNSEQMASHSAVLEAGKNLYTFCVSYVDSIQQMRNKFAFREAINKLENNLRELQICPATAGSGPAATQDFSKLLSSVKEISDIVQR
Protocol: as §1

NME7 = biological target: T4, NME7 (Homo sapiens, UniProt Q9Y5B8);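 as to 0.001 uM KAM: median log10 fold change of treatment over DMSO control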;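 as to 0.01 uM KAM: median log10 fold change of treatment over DMSO control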;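 as to 0.1 uM KAM: median log10 fold change of treatment over DMSO control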;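 as to 1 uM KAM: median log10 fold change of treatment over DMSO control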;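 as to 10 uM KAM: median log10 fold change of treatment over DMSO control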
T4 construct: endogenous in cells; host or cells: K562
T4 sequence (Q9Y5B8 1-376): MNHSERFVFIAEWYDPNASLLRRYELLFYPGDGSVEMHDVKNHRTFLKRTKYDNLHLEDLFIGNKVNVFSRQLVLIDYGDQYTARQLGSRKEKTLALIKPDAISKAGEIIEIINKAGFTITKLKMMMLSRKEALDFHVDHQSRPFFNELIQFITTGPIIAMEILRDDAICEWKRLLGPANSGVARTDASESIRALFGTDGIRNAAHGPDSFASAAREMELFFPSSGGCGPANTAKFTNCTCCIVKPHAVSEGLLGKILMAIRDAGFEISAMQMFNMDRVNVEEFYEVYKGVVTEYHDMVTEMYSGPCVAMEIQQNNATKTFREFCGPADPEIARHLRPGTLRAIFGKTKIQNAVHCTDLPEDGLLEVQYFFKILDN
Protocol: as §1

CLK1 = biological target: T5, CLK1 (Homo sapiens, UniProt P49759)
T5 construct: endogenous in cells; host or cells: K562
T5 sequence (P49759 whole entry): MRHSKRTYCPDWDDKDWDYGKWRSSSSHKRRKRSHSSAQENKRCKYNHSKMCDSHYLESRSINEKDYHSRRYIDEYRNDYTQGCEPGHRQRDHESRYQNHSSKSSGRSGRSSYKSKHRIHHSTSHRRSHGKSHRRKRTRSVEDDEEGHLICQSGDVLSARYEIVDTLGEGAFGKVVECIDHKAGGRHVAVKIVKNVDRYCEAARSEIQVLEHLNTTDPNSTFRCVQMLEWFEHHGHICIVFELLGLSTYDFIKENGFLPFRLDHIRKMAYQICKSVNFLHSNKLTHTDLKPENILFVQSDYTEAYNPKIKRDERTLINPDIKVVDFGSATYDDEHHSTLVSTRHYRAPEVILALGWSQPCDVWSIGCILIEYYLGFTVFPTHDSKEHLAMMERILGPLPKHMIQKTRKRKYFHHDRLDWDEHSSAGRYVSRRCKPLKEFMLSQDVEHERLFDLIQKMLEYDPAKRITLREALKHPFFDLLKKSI
Protocol: as §1

HIPK1 = biological target: T6, HIPK1 (Homo sapiens, UniProt Q86Z02)
T6 construct: endogenous in cells; host or cells: K562
T6 sequence (Q86Z02 whole entry): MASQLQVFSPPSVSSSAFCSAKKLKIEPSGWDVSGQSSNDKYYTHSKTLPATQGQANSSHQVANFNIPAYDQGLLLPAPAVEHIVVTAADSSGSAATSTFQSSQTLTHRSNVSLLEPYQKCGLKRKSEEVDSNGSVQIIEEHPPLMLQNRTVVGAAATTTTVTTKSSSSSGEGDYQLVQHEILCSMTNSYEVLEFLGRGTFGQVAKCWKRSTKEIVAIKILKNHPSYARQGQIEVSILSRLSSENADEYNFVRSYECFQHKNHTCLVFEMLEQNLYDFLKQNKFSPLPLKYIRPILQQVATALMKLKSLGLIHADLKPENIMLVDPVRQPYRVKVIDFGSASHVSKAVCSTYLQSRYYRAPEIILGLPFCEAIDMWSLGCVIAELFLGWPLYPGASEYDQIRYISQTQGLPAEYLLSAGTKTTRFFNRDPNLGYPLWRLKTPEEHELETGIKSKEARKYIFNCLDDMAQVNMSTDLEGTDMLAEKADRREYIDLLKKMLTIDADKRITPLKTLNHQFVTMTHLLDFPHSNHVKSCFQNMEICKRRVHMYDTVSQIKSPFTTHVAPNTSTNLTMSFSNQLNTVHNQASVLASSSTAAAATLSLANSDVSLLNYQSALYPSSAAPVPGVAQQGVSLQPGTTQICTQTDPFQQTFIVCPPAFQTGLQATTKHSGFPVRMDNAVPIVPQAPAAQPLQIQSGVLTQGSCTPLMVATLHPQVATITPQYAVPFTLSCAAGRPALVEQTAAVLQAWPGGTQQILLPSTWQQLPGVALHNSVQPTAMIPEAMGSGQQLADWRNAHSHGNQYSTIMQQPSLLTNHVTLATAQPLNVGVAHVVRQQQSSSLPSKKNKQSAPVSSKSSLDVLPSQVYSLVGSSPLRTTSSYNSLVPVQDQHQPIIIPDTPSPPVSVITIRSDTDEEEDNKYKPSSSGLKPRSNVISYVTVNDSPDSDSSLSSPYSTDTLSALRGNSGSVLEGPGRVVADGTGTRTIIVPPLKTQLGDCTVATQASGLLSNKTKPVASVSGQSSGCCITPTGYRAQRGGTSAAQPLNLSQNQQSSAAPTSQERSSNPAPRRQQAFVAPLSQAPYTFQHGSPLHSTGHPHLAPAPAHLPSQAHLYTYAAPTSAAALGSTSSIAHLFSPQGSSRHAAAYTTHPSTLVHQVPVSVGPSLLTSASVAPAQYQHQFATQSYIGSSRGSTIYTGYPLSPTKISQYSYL
Protocol: as §1

PDIK1L = biological target: T7, PDIK1L (Homo sapiens, UniProt Q8N165)
T7 construct: endogenous in cells; host or cells: K562
T7 sequence (Q8N165 whole entry): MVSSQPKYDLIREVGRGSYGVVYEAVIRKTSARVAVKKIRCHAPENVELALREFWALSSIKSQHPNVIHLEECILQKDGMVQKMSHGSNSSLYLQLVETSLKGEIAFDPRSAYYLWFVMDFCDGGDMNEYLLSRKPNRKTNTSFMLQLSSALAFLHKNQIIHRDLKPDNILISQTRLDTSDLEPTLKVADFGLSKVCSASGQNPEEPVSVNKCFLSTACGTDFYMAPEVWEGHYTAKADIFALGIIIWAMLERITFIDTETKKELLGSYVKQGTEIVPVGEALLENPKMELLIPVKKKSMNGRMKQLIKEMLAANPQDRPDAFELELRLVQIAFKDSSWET
Protocol: as §1

BMPR1A = biological target: T8, BMPR1A (Homo sapiens, UniProt P36894)
T8 construct: endogenous in cells; host or cells: K562
T8 sequence (P36894 24-532): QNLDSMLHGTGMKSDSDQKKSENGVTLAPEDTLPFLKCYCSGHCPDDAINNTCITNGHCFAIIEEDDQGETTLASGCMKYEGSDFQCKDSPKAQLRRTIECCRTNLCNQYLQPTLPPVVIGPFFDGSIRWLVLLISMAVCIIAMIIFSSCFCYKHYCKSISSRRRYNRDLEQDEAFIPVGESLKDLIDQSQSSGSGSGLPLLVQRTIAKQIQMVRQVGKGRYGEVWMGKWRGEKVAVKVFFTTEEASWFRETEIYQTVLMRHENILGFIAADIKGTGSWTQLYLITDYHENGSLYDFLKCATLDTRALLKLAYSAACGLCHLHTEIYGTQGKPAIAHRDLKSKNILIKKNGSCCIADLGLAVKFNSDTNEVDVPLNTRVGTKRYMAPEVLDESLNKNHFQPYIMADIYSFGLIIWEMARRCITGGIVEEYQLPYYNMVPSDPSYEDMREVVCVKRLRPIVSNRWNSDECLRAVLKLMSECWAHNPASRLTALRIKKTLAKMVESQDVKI
Protocol: as §1

[1] = KAM 0.001-10 uM, read-out: RB50 (the source's name)
[2] = read-out: RB50 (the source's name)

N#CCc1ccc(Nc2nc(NCCCN)cc(Nc3cc(C4CC4)[nH]n3)n2)cc1 [KAM]
IC50 (MAPK14; [1]): > 10000 nM | 0.001 uM KAM (MAPK14; relative to 0 uM KAM = 0): -0.03046 | 0.01 uM KAM (MAPK14; relative to 0 uM KAM = 0): 0.03223 | 0.1 uM KAM (MAPK14; relative to 0 uM KAM = 0): 0.1026 | 1 uM KAM (MAPK14; relative to 0 uM KAM = 0): 0.08115 | 10 uM KAM (MAPK14; relative to 0 uM KAM = 0): 0.173 | IC50 (ARAF; [1]): > 10000 nM | 0.001 uM KAM (ARAF; relative to 0 uM KAM = 0): -0.04442 | 0.01 uM KAM (ARAF; relative to 0 uM KAM = 0): -0.008723 | 0.1 uM KAM (ARAF; relative to 0 uM KAM = 0): -0.09412 | 1 uM KAM (ARAF; relative to 0 uM KAM = 0): -0.1283 | 10 uM KAM (ARAF; relative to 0 uM KAM = 0): -0.1374 | median Log10 fold change (BCR; 0.001 uM KAM): -0.02555 | median Log10 fold change (BCR; 0.01 uM KAM): -0.005343 | median Log10 fold change (BCR; 0.1 uM KAM): -0.1851 | median Log10 fold change (BCR; 1 uM KAM): -0.427 | median Log10 fold change (BCR; 10 uM KAM): -0.5622 | IC50 (NME7; [1]): > 10000 nM | 0.001 uM KAM (NME7; relative to 0 uM KAM = 0): -0.02057 | 0.01 uM KAM (NME7; relative to 0 uM KAM = 0): -0.007814 | 0.1 uM KAM (NME7; relative to 0 uM KAM = 0): 0.03797 | 1 uM KAM (NME7; relative to 0 uM KAM = 0): 0.05362 | 10 uM KAM (NME7; relative to 0 uM KAM = 0): 0.03977 | median Log10 fold change (CLK1; 0.001 uM KAM): 0.02063 | median Log10 fold change (CLK1; 0.01 uM KAM): -0.05735 | median Log10 fold change (CLK1; 0.1 uM KAM): -0.2418 | median Log10 fold change (CLK1; 1 uM KAM): -0.3053 | median Log10 fold change (CLK1; 10 uM KAM): -0.4001 | IC50 (CLK1; [2]): 858 nM | median Log10 fold change (HIPK1; 0.001 uM KAM): 0.007007 | median Log10 fold change (HIPK1; 0.01 uM KAM): -0.007344 | median Log10 fold change (HIPK1; 0.1 uM KAM): -0.151 | median Log10 fold change (HIPK1; 1 uM KAM): -0.3582 | median Log10 fold change (HIPK1; 10 uM KAM): -0.4749 | IC50 (HIPK1; [2]): 770 nM | median Log10 fold change (PDIK1L; 0.001 uM KAM): -0.01583 | median Log10 fold change (PDIK1L; 0.01 uM KAM): -0.03169 | median Log10 fold change (PDIK1L; 0.1 uM KAM): -0.1434 | median Log10 fold change (PDIK1L; 1 uM KAM): -0.3076 | median Log10 fold change (PDIK1L; 10 uM KAM): -0.3596 | IC50 (PDIK1L; [2]): 1310 nM | median Log10 fold change (BMPR1A; 0.001 uM KAM): -0.03052 | median Log10 fold change (BMPR1A; 0.01 uM KAM): -0.01848 | median Log10 fold change (BMPR1A; 0.1 uM KAM): -0.1062 | median Log10 fold change (BMPR1A; 1 uM KAM): -0.2213 | median Log10 fold change (BMPR1A; 10 uM KAM): -0.3941 | IC50 (BMPR1A; [2]): 2700 nM
